According to PubChem BioAssay AID330 (DTP/NCI, 2004):
Several values for one entry are separate records, joined by “and”; a condition that tells them apart may be missing. Identical values can stand only once. Toxic doses and inconclusive results are not listed.

Test system: P388 leukemia ip, CD2F1 mice, survival T/C
Experiment: NCI In Vivo Anticancer Drug Screen. Data for tumor model P388 Leukemia (intraperitoneal) in CD2F1 (CDF1) mice
Conditions: endpoint: median survival time, higher = longer survival
Method in brief: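 Mice carrying the transplanted tumor received test compound or vehicle. Survival was recorded in each group, and the value is the treated-group measurement divided by that of the vehicle-treated control group.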

[1] = dose: 50.0 mg/kg/injection, schedule: Q01DX009 (ip), vehicle: saline
[2] = dose: 100.0 mg/kg/injection, schedule: Q01DX009 (ip), vehicle: saline
[3] = dose: 200.0 mg/kg/injection, schedule: Q01DX009 (ip), vehicle: saline
[4] = dose: 25.0 mg/kg/injection, schedule: Q01DX005 (ip), vehicle: saline with Tween-80
[5] = dose: 50.0 mg/kg/injection, schedule: Q01DX005 (ip), vehicle: saline with Tween-80
[6] = dose: 100.0 mg/kg/injection, schedule: Q01DX005 (ip), vehicle: saline with Tween-80
[7] = dose: 50.0 mg/kg/injection, schedule: Q01DX009 (ip), vehicle: Klucel (hydroxypropylcellulose) (HPC)
[8] = dose: 100.0 mg/kg/injection, schedule: Q01DX009 (ip), vehicle: Klucel (hydroxypropylcellulose) (HPC)
[9] = dose: 200.0 mg/kg/injection, schedule: Q01DX009 (ip), vehicle: Klucel (hydroxypropylcellulose) (HPC)
[10] = dose: 12.5 mg/kg/injection, schedule: Q01DX005 (ip), vehicle: saline with Tween-80
[11] = dose: 100.0 mg/kg/injection, schedule: Q01DX009 (ip), vehicle: saline with Tween-80
[12] = dose: 200.0 mg/kg/injection, schedule: Q01DX009 (ip), vehicle: saline with Tween-80

SMILES: COc1cccc2c1C(=O)c1c(O)c3c(c(O)c1C2=O)C[C@@](O)(C(=O)CO)C[C@@H]3OC1CC(N2CCCCC2)C(O)C(C)O1 (some centres not stated)
- T/C (dose: 0.78 mg/kg/injection, schedule: Q01DX009 (ip), vehicle: water): 151 % of control
- T/C (dose: 1.2 mg/kg/injection, schedule: Q04DX003 (ip), vehicle: water): 100 % of control
- T/C (dose: 1.56 mg/kg/injection, schedule: Q01DX009 (ip), vehicle: water): 184 % of control
- T/C (dose: 2.4 mg/kg/injection, schedule: Q04DX003 (ip), vehicle: water): 113 % of control
- T/C (dose: 3.13 mg/kg/injection, schedule: Q01DX009 (ip), vehicle: water): 190 % of control
- T/C (dose: 4.7 mg/kg/injection, schedule: Q04DX003 (ip), vehicle: water): 106 % of control
- T/C (dose: 9.4 mg/kg/injection, schedule: Q04DX003 (ip), vehicle: water): 155 % of control
- T/C (dose: 37.5 mg/kg/injection, schedule: Q04DX003 (ip), vehicle: water): 87 % of control

SMILES: O=[N+]([O-])c1ccc2c(c1)N=Cc1ccccc1NCCNc1ccccc1C=N2
- T/C [1]: 95 % of control
- T/C [2]: 87 % of control and 90 % of control
- T/C [3]: 92 % of control and 93 % of control

SMILES: C=CCC(C)(C)CC=C1C2CCC1N(C(=O)OC)N2C(=O)OC
- T/C [4]: 107 % of control
- T/C [5]: 99 % of control
- T/C [6]: 112 % of control

SMILES: C=CCNSc1cccc([N+](=O)[O-])c1
- T/C (dose: 6.25 mg/kg/injection, schedule: Q01DX009 (ip), vehicle: Klucel (hydroxypropylcellulose) (HPC)): 121 % of control
- T/C (dose: 12.5 mg/kg/injection, schedule: Q01DX009 (ip), vehicle: Klucel (hydroxypropylcellulose) (HPC)): 120 % of control
- T/C (dose: 25.0 mg/kg/injection, schedule: Q01DX009 (ip), vehicle: Klucel (hydroxypropylcellulose) (HPC)): 121 % of control
- T/C [7]: 102 % of control and 103 % of control and 115 % of control

SMILES: Cc1cc(OC(N)=S)cc(C)c1Cl
- T/C [7]: 101 % of control
- T/C [8]: 100 % of control
- T/C [9]: 101 % of control

SMILES: CS(=O)(=O)N1C=Cc2ccccc2C=C1
- T/C (dose: 100.0 mg/kg/injection, schedule: Q04DX002 (ip), vehicle: saline with Tween-80): 99 % of control
- T/C (dose: 200.0 mg/kg/injection, schedule: Q04DX002 (ip), vehicle: saline with Tween-80): 90 % of control
- T/C (dose: 400.0 mg/kg/injection, schedule: Q04DX002 (ip), vehicle: saline with Tween-80): 99 % of control

SMILES: CCCC(C)(C)c1cc(C(C)C)cc(C(C)(C)CCC)c1O
- T/C (dose: 12.5 mg/kg/injection, schedule: Q01DX009 (ip), vehicle: other): 100 % of control
- T/C (dose: 25.0 mg/kg/injection, schedule: Q01DX009 (ip), vehicle: other): 100 % of control
- T/C (dose: 25.0 mg/kg/injection, schedule: Q01DX009 (ip), vehicle: saline + Tween-80 + alcohol): 103 % of control
- T/C (dose: 50.0 mg/kg/injection, schedule: Q01DX009 (ip), vehicle: other): 106 % of control
- T/C (dose: 50.0 mg/kg/injection, schedule: Q01DX009 (ip), vehicle: saline + Tween-80 + alcohol): 101 % of control
- T/C (dose: 100.0 mg/kg/injection, schedule: Q01DX009 (ip), vehicle: other): 112 % of control
- T/C (dose: 100.0 mg/kg/injection, schedule: Q01DX009 (ip), vehicle: saline + Tween-80 + alcohol): 100 % of control
- T/C (dose: 200.0 mg/kg/injection, schedule: Q01DX009 (ip), vehicle: saline + Tween-80 + alcohol): 113 % of control

SMILES: OCCN(CCO)N(CCO)CCO
- T/C (dose: 50.0 mg/kg/injection, schedule: Q01DX005 (ip), vehicle: saline): 96 % of control
- T/C (dose: 100.0 mg/kg/injection, schedule: Q01DX005 (ip), vehicle: saline): 97 % of control
- T/C (dose: 200.0 mg/kg/injection, schedule: Q01DX005 (ip), vehicle: saline): 97 % of control

SMILES: Cc1ccc(C)c(C(O)C2CC2)c1 (configuration not stated)
- T/C (dose: 100.0 mg/kg/injection, schedule: Q04DX003 (ip), vehicle: saline with Tween-80): 100 % of control
- T/C (dose: 200.0 mg/kg/injection, schedule: Q04DX003 (ip), vehicle: saline with Tween-80): 104 % of control

SMILES: CC(N)C(=O)NC(C(=O)NC1C(O)OC(CO)C(O)C1O)C(C)C (configuration not stated)
- T/C (dose: 60.0 mg/kg/injection, schedule: Q01DX005 (ip), vehicle: saline): 99 % of control
- T/C (dose: 120.0 mg/kg/injection, schedule: Q01DX005 (ip), vehicle: saline): 104 % of control
- T/C (dose: 240.0 mg/kg/injection, schedule: Q01DX005 (ip), vehicle: saline): 97 % of control

SMILES: CCOC(=O)Nc1cc2c(c(N)n1)N=C(c1ccc3ccccc3c1)CN2
- T/C (dose: 5.0 mg/kg/injection, schedule: Q01DX005 (ip), vehicle: saline with Tween-80): 153 % of control
- T/C (dose: 7.5 mg/kg/injection, schedule: Q01DX005 (ip), vehicle: saline with Tween-80): 165 % of control
- T/C (dose: 10.0 mg/kg/injection, schedule: Q01DX005 (ip), vehicle: saline with Tween-80): 166 % of control and 168 % of control

SMILES: O=c1c2ccccc2nnn1Cc1ccco1
- T/C (dose: 1.25 mg/kg/injection, schedule: Q01DX005 (ip), vehicle: saline with Tween-80): 100 % of control
- T/C [10]: 92 % of control
- T/C [4]: 100 % of control and 90 % of control
- T/C [5]: 104 % of control and 90 % of control
- T/C [6]: 92 % of control and 93 % of control

SMILES: c1ccc2c(c1)-c1nc-2nc2[nH]c(nc3nc(nc4[nH]c(n1)c1ccccc41)-c1ccccc1-3)c1cc3c4nc5nc(nc6[nH]c(nc7nc(nc([nH]4)c3cc21)-c1ccccc1-7)c1ccccc61)-c1ccccc1-5
- T/C (dose: 60.0 mg/kg/injection, schedule: Q01DX005 (ip), vehicle: Klucel (hydroxypropylcellulose) (HPC)): 106 % of control
- T/C (dose: 120.0 mg/kg/injection, schedule: Q01DX005 (ip), vehicle: Klucel (hydroxypropylcellulose) (HPC)): 100 % of control
- T/C (dose: 240.0 mg/kg/injection, schedule: Q01DX005 (ip), vehicle: Klucel (hydroxypropylcellulose) (HPC)): 97 % of control

SMILES: CCCCCCC(=O)/C=C/c1ccc(OC)c(OC)c1OC
- T/C (dose: 50.0 mg/kg/injection, schedule: Q01DX009 (ip), vehicle: saline with Tween-80): 96 % of control
- T/C [11]: 96 % of control
- T/C [12]: 102 % of control

SMILES: COc1ccc(S(=O)(=O)N/N=C(/C(=O)O)c2ccccc2)cc1
- T/C [10]: 95 % of control
- T/C [4]: 94 % of control
- T/C [5]: 106 % of control
- T/C [6]: 100 % of control
- T/C (dose: 200.0 mg/kg/injection, schedule: Q01DX005 (ip), vehicle: saline with Tween-80): 109 % of control and 112 % of control
- T/C (dose: 400.0 mg/kg/injection, schedule: Q01DX005 (ip), vehicle: saline with Tween-80): 109 % of control

SMILES: CC(=O)NCCSC(NC(=O)Cc1ccccc1)C(=O)O (configuration not stated)
- T/C [7]: 94 % of control
- T/C [8]: 97 % of control
- T/C [9]: 100 % of control

SMILES: Cn1cnc2c(N(CCO)CCO)ncnc21
- T/C (dose: 50.0 mg/kg/injection, schedule: Q01DX005 (ip), vehicle: distilled water + Tween-80 + alcohol): 109 % of control
- T/C (dose: 100.0 mg/kg/injection, schedule: Q01DX005 (ip), vehicle: distilled water + Tween-80 + alcohol): 105 % of control
- T/C (dose: 200.0 mg/kg/injection, schedule: Q01DX005 (ip), vehicle: distilled water + Tween-80 + alcohol): 106 % of control

SMILES: CCOC(=O)NC(c1ccc(C(NC(=O)OCC)P(=O)(O)NC23CC4CC(CC(C4)C2)C3)cc1)P(=O)(O)NC12CC3CC(CC(C3)C1)C2 (configuration not stated)
- T/C (dose: 60.0 mg/kg/injection, schedule: Q01DX005 (ip), vehicle: saline with Tween-80): 105 % of control
- T/C (dose: 120.0 mg/kg/injection, schedule: Q01DX005 (ip), vehicle: saline with Tween-80): 105 % of control
- T/C (dose: 240.0 mg/kg/injection, schedule: Q01DX005 (ip), vehicle: saline with Tween-80): 98 % of control

SMILES: CCCCCCC(/C=C/c1ccc(Cl)c(Cl)c1)=N\NC(N)=O
- T/C [1]: 104 % of control
- T/C [2]: 100 % of control
- T/C [3]: 98 % of control

SMILES: CCCn1c(O)c(C=N)c(=O)n(CCC)c1=O
- T/C [11]: 95 % of control
- T/C [12]: 100 % of control
- T/C (dose: 400.0 mg/kg/injection, schedule: Q01DX009 (ip), vehicle: saline with Tween-80): 100 % of control

SMILES: CN(C)CCN(C)C(=N)N
- T/C (dose: 25.0 mg/kg/injection, schedule: Q01DX009 (ip), vehicle: saline): 100 % of control and 105 % of control
- T/C [1]: 104 % of control
- T/C [2]: 91 % of control and 96 % of control
- T/C [3]: 88 % of control and 94 % of control

SMILES: COc1ccc(O)c(C(C)=O)c1
- T/C (dose: 50.0 mg/kg/injection, schedule: Q01DX005 (ip), vehicle: Klucel (hydroxypropylcellulose) (HPC)): 102 % of control
- T/C (dose: 100.0 mg/kg/injection, schedule: Q01DX005 (ip), vehicle: Klucel (hydroxypropylcellulose) (HPC)): 100 % of control
- T/C (dose: 200.0 mg/kg/injection, schedule: Q01DX005 (ip), vehicle: Klucel (hydroxypropylcellulose) (HPC)): 98 % of control
